The results in this text go back to ChEMBL document CHEMBL3880396, “Calcium channel inhibitors comprising benzhydril spaced from piperazine” (2004).

SMILES strings stand for the structures.

Assay [1] is described as follows: Selectivity ratio of IC50 for alpha1A/alpha2delta/beta1b P/Q-type calcium channel (unknown origin) to IC50 for rat brain […] N-type calcium channel.
Assay [2] in a line: Selectivity ratio of IC50 for alpha1C/alpha2delta/beta1b L-type calcium channel (unknown origin) to IC50 for rat brain […] N-type calcium channel.

With `O=C(O)C1CN(C(c2ccccc2)c2ccccc2)CCN1C(=O)CC(c1ccccc1)c1ccccc1` (configuration not stated), the figures for the Ratio IC50 in assay [1] and in assay [2] were 9.4 and 103, respectively.

For the molecule `COc1ccc(C(c2ccc(C(F)(F)F)cc2)N2CCN(C(=O)CC(c3ccccc3)c3ccccc3)CC2)cc1` (configuration not stated), the Ratio IC50 in assay [1] was 41; in assay [2], above 54.

As for `O=C(CC(c1ccccc1)c1ccccc1)N1CCN(C(c2ccccc2)c2ccc(Cl)cc2)CC1` (configuration not stated), the results for the Ratio IC50 in assay [1] and in assay [2] were 28 and 831, respectively.

Turning to `O=C(CC(c1ccccc1)c1ccccc1)N1CCN(C(c2ccccc2)c2ccc(C(F)(F)F)cc2)CC1` (configuration not stated), the Ratio IC50 in assay [1] stood at 5.1; in assay [2] it was 103.

With `CC(C)(C)c1cc(C(c2ccccc2)N2CCN(C(=O)CC(c3ccccc3)c3ccccc3)CC2)cc(C(C)(C)C)c1O` (configuration not stated), the Ratio IC50 in assay [1] and in assay [2] was above 40 in each case.

On to `CCOC(=O)C1CN(C(c2ccccc2)c2ccccc2)CCN1C(=O)CC(c1ccccc1)c1ccccc1` (configuration not stated), for which the Ratio IC50 in assay [1] is 69; in assay [2] it was 2880.
